Test [1] relates to Human neutrophils. Briefly: Neutrophil-dependent initiation of lipid peroxidation of endogenous plasma lipids (PMA-activated neutrophils, LC/ESI/MS/MS). It is filed as cell-based. Particulars: 50% plasma, 2 h, 37° C, 1 mM NaN3, 300 nM catalase, 100 µM methionine, 100 µM ascorbate, 10 µg/ml SOD. The method, then: (§1) Neutrophils (1×10^6/ml) isolated from normal and MPO-deficient individuals were incubated at 37° C in HBSS supplemented with DTPA (100 µM, pH 7.0) and fresh human plasma (50% v/v). Cells were activated by addition of phorbol myristate acetate (PMA, 200 nM) and incubated for 2 h (Complete System). The content of 9-H(P)ODE and 9-H(P)ETE formed within endogenous plasma lipids were then determined by LC/ESI/MS/MS. Where indicated, human MPO (30 nM) was added to reaction mixtures. Data represent the mean ±SD of triplicate determinations. Each bar within a cluster for a given condition represents results obtained from independent experiments performed with neutrophil preparations from a distinct donor. PMN(MPO+), neutrophils isolated from normal subjects; PMN(MPO-), neutrophils isolated from MPO-deficient subjects. • Figs. 5(A-B) are graphs showing the characterization of neutrophil-dependent initiation of lipid peroxidation of endogenous plasma lipids. Neutrophils (1×10^6/ml) isolated from normal subjects (PMN) were incubated at 37° C in HBSS supplemented with DTPA (100 µM, pH 7.0) and fresh human plasma (50% v/v). Cells were activated by addition of phorbol myristate acetate (PMA, 200 nM) and then incubated for 2 h (Complete System). The content of 9-H(P)ODE and 9-H(P)ETE formed within endogenous plasma lipids were then determined by LC/ESI/MS/MS. Additions or deletions to the Complete System were as indicated. The final concentrations of additions to the Complete System were 30 nM human MPO, 1 mM NaN3, 300 nM catalase (Cat), 300 nM heat inactivated-catalase (hiCat), 100 µM methionine (Met), 100 µM ascorbate and 10 µg/ml superoxide dismutase (SOD). […] The content of 9-H(P)ODE and 9-H(P)ETE formed within endogenous plasma lipids were then determined by LC/ESI/MS/MS. […] The contents of the indicated oxidized PC species were determined in native LDL and LDL oxidized by the MPO-H2O2-NO2 system (NO2-LDL) using LC/ESI/MS/MS. […]

For test [2], the system named is lipid levels and high-sensitivity CRP.
Protocol: Wilcoxon rank-sum test was used to analyze the differences between measurements at baseline and 12 weeks. […] Approximate 95% confidence intervals were found using Fisher's r-to-z transform. Multiple regression analyses were performed to determine factors associated with changes in nitrotyrosine levels.
We performed a prospective, open-label study. The study cohort consisted of a consecutive sample of patients (n=35) recruited from the Preventive Cardiology Clinic at the Cleveland Clinic Foundation. Patients 21 years of age and older without clinical evidence of coronary artery disease and with LDL cholesterol (LDL-C) levels 130 mg per deciliter or greater, despite at least 6-8 weeks of therapeutic lifestyle interventions, were eligible to participate in the study. Briefly, at initial screening, a detailed medical history was obtained, a thorough physical examination was performed, and a fasting lipoprotein profile was obtained. Patients potentially eligible for the study received counseling on nutritional and exercise interventions. If after 6-8 weeks LDL-C remained above 130 mg/dL, patients were eligible for enrollment in the study. […] Fasting morning plasma samples were collected prior to initiation of therapy (baseline), and following 12 weeks of therapy. Patients with active liver disease or renal insufficiency defined as a serum creatinine level of 1.8 mg per deciliter or greater were excluded. […] All patients gave written informed consent, and the Institutional Review Board at the Cleveland Clinic Foundation approved the study protocol.
Blood samples were collected into EDTA tubes from fasting patients. Samples were centrifuged at 3500 rpm for 10 minutes at 4°C, and stored under conditions to minimize artificial oxidation (i.e., with antioxidant cocktail, under inert atmosphere). Briefly, plasma was removed and allocated into tubes containing butylated hydroxytoluene (100µM final) and diethylenetriaminepentaacetic acid (100µM final) overlaid with argon and stored at -80°C until analysis. Standard methods were used to measure lipid levels and high-sensitivity CRP.
Data are presented as mean ± SD, and significance level was set at p < 0.05. Wilcoxon rank-sum test was used to analyze the differences between NO2Tyr, diTyr, and CRP at baseline and 12 weeks, as they were not normally distributed.
Test [3] has as its system MPO. Briefly: Example 15: plasma levels of MPO, statin therapy. In kind it is in vivo, human. Particulars: n=27.
The subject of test [4] is MPO-generated markers of protein and lipid oxidation. Briefly: Example 10: MPO-generated oxidation markers and hs-CRP after 12 weeks of atorvastatin (Figs. 14, 15). It is filed as in vivo, human. To be noted: baseline vs 12 weeks of atorvastatin 10 mg PO QHS.
Test [5] has as its system oxidation products produced by myeloperoxidase and nitric oxide-derived oxidants. Briefly: Prospective intervention study: plasma protein-bound tyrosine oxidation products at baseline and after 12 weeks of atorvastatin. In kind it is in vivo, human.
Test [6] shares this test system. The description is as above. In kind it is in vivo, human. On the procedure:
The population consisted of a consecutive sample of patients recruited from the Preventive Cardiology Clinic at the Cleveland Clinic Foundation from June 2001 until January 2002 who were eligible and consented to participate in the study. Patients 21 years of age and older without clinical evidence of CAD and with low-density lipoprotein cholesterol (LDL-C) levels ≥ 130mg/dL, despite at least 6-8 weeks of therapeutic lifestyle interventions, were eligible to participate in the study. Briefly at initial screening, a detailed medical history was obtained, a thorough physical examination was performed, and a fasting lipoprotein profile was obtained. Patients potentially eligible for the study received counseling on nutritional and exercise interventions. If after 6-8 weeks LDL-C remained ≥130mg/dL, patients were eligible for enrollment in the study. […] Patient with active liver disease or renal insufficiency defined as serum creatine levels of 1.8 mg per deciliter or greater were excluded. […] All patients gave written informed consent, and the Institutional Review Board at the Cleveland Clinic Foundation approved the study protocol.
Blood samples were collected into serum separator tubes (Case-control study) or EDTA tubes (Intervention study) from overnight fasted patients. Samples were centrifuged at 3500 rpm for 10 minutes, plasma/serum recovered, and aliquots stored at -80°C until analysis. Personnel blinded to clinical data performed all laboratory measurements. Lipoprotein/lipid profiles and high sensitivity C-reactive protein (CRP) measurements were performed using CDC standardized assays.
Protein-bound nitrotyrosine levels were determined by stable isotope dilution liquid chromatography-electrospray ionization tandem mass spectrometry based methods using an ion trap mass spectrometer (LCQ Deca, ThermoFinigann, San Jose, CA). […] Nitrotyrosine content in samples is expressed as the mole ratio between nitrotyrosine and the precursor amino acid tyrosine. […]
This is another data set of the same source.

In test [7] the test system is MPO and multiple distinct oxidation products formed by MPO. As to the kind of experiment: Example 13: plasma MPO and oxidation products, ACEI therapy. It is filed as in vivo, human. Particulars: 16 weeks of lisinopril 20 mg PO QD, n=9.
Protocol: Subjects (n=9) had plasma drawn at baseline, and then 16 weeks following therapy with lisinopril (Zestril, 20 mg PO QD). Plasma levels of MPO, protein-bound nitrotyrosine, chlorotyrosine, dityrosine, and 9-H(P)ETE and F2Isoprostantes were monitored.
The test system is the same in test [8]. Briefly: Example 14: plasma MPO and oxidation products, ARB therapy. To be noted: 16 weeks of losartan 25 mg PO QD, n=16. It is filed as in vivo, human. From the text: Angiotensin receptor blocking agents are a new therapy used for treatment of hypertension. They act upon the same biochemical axis as ACEI. Accordingly, they promote clinical benefits beyond those linked to blood pressure reduction - those related to presumed anti-inflammatory and antioxidant actions. However, no means for objectively monitoring these effects have been available. We hypothesized that monitoring levels of MPO and its oxidation products might serve as a way of quantifying the anti-inflammatory and antioxidant effects of ARBs. […] These studies underscore the potential utility of MPO and its oxidation products for monitoring systemic antioxidant and anti-inflammatory effects of therapeutic interventions.

Test [9] addresses T1, human MPO (Homo sapiens, UniProt P05164).
T1 construct: from tissue; host or cells: human leukocytes, for the MPO standard of the ELISA; the lipid peroxidation text only says 'isolated'/'purified' and cites the literature
Briefly: MPO-dependent initiation of lipid peroxidation of endogenous plasma lipids (isolated MPO plus glucose/glucose oxidase). In kind it is biochemical. Particulars: 30 nM MPO, G/GO, 50% plasma, 12 h, 37° C; 1 mM NaN3, 300 nM catalase, 200 nM SOD, 100 µM methionine, 100 µM ascorbate. The method, then: as §1, with “Neutrophils (1×10^6/ml) isolated from normal subjects (PMN) were incubated at 37° C in HBSS supplemented with DTPA (100 µM, pH 7.0) and fresh human plasma (50% v/v). Cells were activated by addition of phorbol myristate acetate (PMA, 200 nM) and then incubated for 2 h (Complete System).” left out, “LC/ESI/MS/MS.” for “LC/ESI/MS/MS. Additions or deletions to the Complete System were as indicated. The final concentrations of additions to the Complete System were 30 nM human MPO, 1 mM NaN3, 300 nM catalase (Cat), 300 nM heat inactivated-catalase (hiCat), 100 µM methionine (Met), 100 µM ascorbate and 10 µg/ml superoxide dismutase (SOD).”

[10] abbreviates: 12 Weeks of atorvastatin 10 mg orally per day, n = 35, mean ± SD.
[11] abbreviates: baseline to 12 weeks, atorvastatin 10 mg per day, n = 35.
Where [12] appears, read: reduction, baseline to 12 weeks, atorvastatin 10 mg per day, given unsigned.
Where [13] appears, read: reduction, baseline to 12 weeks, atorvastatin 10 mg per day, given unsigned, not significant.
[14] abbreviates: n=35, LDL cholesterol ≥ 130mg/dL.
The mark [15] stands for this setting: plasma protein-bound, 12 Weeks of atorvastatin 10 mg orally per day, n = 35, mean ± SD.

Results on six molecules are retold here after patent EP1495132B1, “SYSTEMIC MARKER FOR MONITORING ANTI-INFLAMMATORY AND ANTIOXIDANT ACTIONS OF THERAPEUTIC AGENTS” (priority 2002, dated 2003).

Where “and” joins values, the source holds several entries; their conditions need not be identical. Equal values may be shown once.

T1 sequence (P05164 279-745 limits assumed): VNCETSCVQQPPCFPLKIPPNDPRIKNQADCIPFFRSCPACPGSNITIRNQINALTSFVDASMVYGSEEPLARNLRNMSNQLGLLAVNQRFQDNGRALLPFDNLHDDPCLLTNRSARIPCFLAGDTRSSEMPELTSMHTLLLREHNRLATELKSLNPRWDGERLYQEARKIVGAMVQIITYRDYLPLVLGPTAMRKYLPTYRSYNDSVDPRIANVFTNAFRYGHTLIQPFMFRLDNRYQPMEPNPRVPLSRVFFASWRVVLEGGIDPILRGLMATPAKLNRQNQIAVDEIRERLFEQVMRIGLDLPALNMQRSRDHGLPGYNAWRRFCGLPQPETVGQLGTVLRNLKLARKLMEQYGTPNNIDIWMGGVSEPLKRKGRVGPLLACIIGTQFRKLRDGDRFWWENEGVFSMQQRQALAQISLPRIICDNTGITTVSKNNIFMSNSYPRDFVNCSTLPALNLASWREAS
T1 sequence (P05164 165-273 limits assumed): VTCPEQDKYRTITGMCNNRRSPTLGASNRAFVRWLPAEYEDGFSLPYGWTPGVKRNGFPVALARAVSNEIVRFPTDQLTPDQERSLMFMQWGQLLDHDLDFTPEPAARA

For `O[C@H](CS)[C@H](O)CS` (racemic) [dithiothreitol], the “neutrophil-dependent peroxidation of endogenous plasma lipids (9-H(P)ODE and 9-H(P)ETE)” value in test [1] was “failed to attenuate”.
In the case of `CC(C)c1c(C(=O)Nc2ccccc2)c(-c2ccccc2)c(-c2ccc(F)cc2)n1CC[C@@H](O)C[C@@H](O)CC(=O)O` [Atorvastatin, atorvastatin], in test [2] (setting [10]), the “Apolipoprotein B-100” value is given as 96 ± 21 mg/dL; the C-reactive protein is 0.23 ± 0.33 mg/dL and 0.23 mg/dL; the Total cholesterol level is on record as 190 ± 28 mg/dL. For the same molecule, in [2] (setting [11]), the “Apolipoprotein B-100, absolute change” value is reported as -39 mg/dL; the “C-reactive protein, absolute change” value is listed as -0.2 mg/dL; the “Total cholesterol, absolute change” value is reported as -63 mg/dL; the “Triglycerides, absolute change” value is -14 mg/dL. For the same molecule, the Triglycerides in test [2] (fasting, 12 Weeks of atorvastatin 10 mg orally per day, n = 35, mean ± SD) turned out to be 132 ± 81 mg/dL. In addition, in test [2] (setting [12]), the “Apolipoprotein B-100, % change” value was determined as 29% and the “Total cholesterol, % change” value is 25%. Further, in [2] (setting [13]), the “C-reactive protein, % change” value was found to be 11% and the “Triglycerides, % change” value came out at 10%. In addition, the MPO in [3] (plasma, 16 weeks of Atorvastatin 10 mg PO QD) was 17.3 ± 4.8 ng/mL. For the same molecule, the “MPO, % change” value in [3] (reduction, baseline to 16 weeks of Atorvastatin 10 mg PO QD, given unsigned) was 12.2%. In test [4] (setting [14]), this molecule came in with a reduction in dityrosine of 30% and a reduction in nitrotyrosine of 24%. Besides, the “decrease in hs-CRP” value in [4] (n=35, failed to reach significance) turned out to be 11%. In test [5] (setting [11]), the “Chlorotyrosine, absolute change” value is -6 µmol/mol tyrosine; the “Dityrosine, absolute change” value is reported as -11 µmol/mol tyrosine; the “ortho-tyrosine, absolute change” value is -8 µmol/mol tyrosine. In test [5] (setting [15]), this molecule had a Chlorotyrosine of 13 ± 4 µmol/mol tyrosine, a Dityrosine of 23 ± 8 µmol/mol tyrosine and an ortho-tyrosine of 81 ± 40 µmol/mol tyrosine. Also, in test [5] (setting [12]), the “Chlorotyrosine, % change” value amounted to 30% and the “Dityrosine, % change” value stood at 32%. Moreover, in test [5] (setting [13]), the “ortho-tyrosine, % change” value worked out at 9%. For the same molecule, in [6] (setting [11]), the “Nitrotyrosine, absolute change” value was -4 µmol/mol tyrosine. For the same molecule, the Nitrotyrosine in test [6] (setting [15]) is recorded as 11 ± 5 µmol/mol tyrosine. Moreover, the “Nitrotyrosine, % change” value in test [6] (setting [12]) was 25%.
On to `NCCCC[C@H](N[C@@H](CCc1ccccc1)C(=O)O)C(=O)N1CCC[C@H]1C(=O)O` [lisinopril], for which the Nitrotyrosine in test [7] (plasma protein-bound) is listed as 10.3 µmol/mol. In addition, in test [7] (plasma), the “9-H(P)ETE” value is 0.21 mmol/mol, the Chlorotyrosine was found to be 15.0 µmol/mol, the Dityrosine is 24.1 µmol/mol and the F2Isoprostane worked out at 0.72 mmol/mol. The molecule further yielded an MPO in test [7] (plasma) of 8.8 ng/mL.
With `CCCCc1nc(Cl)c(CO)n1Cc1ccc(-c2ccccc2-c2nn[nH]n2)cc1` [losartan], the Nitrotyrosine in test [8] (plasma protein-bound) came out at 8.1 umol/mol. Moreover, in test [8] (plasma), the “9-H(P)ETE” value is recorded as 0.27 mmol/mol, the Chlorotyrosine was 14.3 umol/mol, the Dityrosine was found to be 28.5 umol/mol and the F2Isoprostane came to 0.68 mmol/mol. The molecule further had an MPO in test [8] (plasma) of 9.9 ng/mL.
Consider `CSCC[C@H](N)C(=O)O` [methionine], for which, in test [9], the “MPO-dependent lipid oxidation in plasma (9-H(P)ODE and 9-H(P)ETE)” value is given as “not affected”. Moreover, in test [1], the “neutrophil-dependent peroxidation of endogenous plasma lipids (9-H(P)ODE and 9-H(P)ETE)” value was “failed to attenuate”.
Taken in the same sequence, the figures for azide were “inhibited” and “complete inhibition”.
